Measurements from patent publication US9315482B2, “Derivatives useful as antiviral agents” (priority 2010, dated 2016).
Where two headings read alike, the source gives them in different places.

How the values were obtained:
measles virus (MV) = assay: Inhibition of measles virus replication in HEK-293T cells, recombinant measles virus expressing luciferase (MV-Luc); details: for in vitro replication of the measles virus (MV) (luciferase activity) / in vitro replication of measles virus (MV) (luciferase activity): MV-Luc; for in vitro replication of measles virus (MV) (luciferase activity): Example 37, HEK-293T cells, FIG. 11B; for in vitro replication of measles virus expressing luciferase: Example 33, HEK-293T cells, FIG. 7; for in vitro replication of measles virus expressing luciferase / in vitro replication of measles virus (luciferase activity): 48 h; for in vitro replication of measles virus (luciferase activity): Example 32, HEK-293T cells, 1 M.O.I., 20, 10, 5 μg/ml, FIG. 6
[1] = Metabolic stability over human liver microsomes; assay type: in vitro ADME; details: human liver microsomes 0.5 mg/mL, 1 mM NADPH, 2.5 μM compound, 37 °C
Method: The metabolic stability of compounds DD771 and GAC50 has been measured over human liver microsomes
Incubation (n=2) • A solution comprising each compound is prepared at a concentration of 1 mM in DMSO. • Said solution is diluted 1/100 in a phosphate buffer containing 0.5 mg/mL of human liver microsomes, 1 mM NADPH and 5 mM MgCl2.
The final concentration of each compound in the assay is 2.5 μM (0.25% de DMSO). • After homogenization (30 s), 50 μL are taken and mixed to 50 μL acetonitrile in order to precipitate the proteins present in the medium and to solubilise the compound. • The mixture is vortexed during 3 min then sonicated during 3 min and finally centrifuged during 10 min at 15 000 g and 4° C. • The same treatment is done at times 15, 30, 45 and 60 minutes. • The supernatants are injected and analysed by LC-MS/MS following standard method. • In parallel, incubation is carried out and in duplicate by substituting the co-factor NADPH by an equivalent buffer volume. • A sample is taken at t=60 min only.
Analyse LC-MS/MS: • All the samples are analysed by UHPLC coupled to a triple quadruple Shimadzu LC-MS 3080.
Calculations: • Half life: […] • Intrinsec clearance: CLint=V×ln2/t1/2
k: disappearance rate constant (min^−1)
V=incubation volume/protein mass (μL/mg)

HEK-293T cells [2] = test system: HEK-293T cells
[3] = test system: human parainfluenza virus type 3 (hPIV3); assay: Inhibition of human parainfluenza virus type 3 in HEK-293T cells, glycoprotein immunostaining; assay type: cell-based; details: 1 M.O.I., 2.5, 5, 10, 20 μg/ml, 48 h, FIG. 3
Text: Culture medium was removed, and cells were fixed in 90% acetone. Infected cells were stained with a FITC-conjugated monoclonal antibody (17-038; Argene) to detect the virus glycoprotein (green fluorescence). Cells were counterstained with Evans blue (red fluorescence).

RSV A2 = assay: Inhibition of human respiratory syncytial virus in MRC5 cells, flow cytometry (RSV A2); assay type: cell-based; details: M.O.I of 1, 20, 10 μg/ml, 48 h, FIG. 4
Method: (§1) After 24 h, cell culture medium was removed, and cells were incubated for at 37° C. in the presence RSV A2 or RSV B1 at a M.O.I of 1. […] After 48 h, cells were harvested, treated with Cytofix/Cytoperm fixation/permeabilization solution (Becton-Dickinson), and stained with anti-H antibodies (ab20391, Abeam) to detect the virus glycoprotein. The percentage of infected cells was determined by flow cytometry analysis. Interferon beta (IFN-β) was used as a reference.

coxsackievirus B3 = assay: Inhibition of coxsackievirus B3 in HEK-293T cells, virus titers by TCID50; assay type: cell-based; details: 0.1 M.O.I., 10 μg/ml, 24 h, FIG. 5
Method: Finally, supernatants were harvested, and virus titers were determined by TCID50 (Tissue Culture Infecting Dose) on vera cells.

[4] = test system: herpes simplex virus 1 (HSV1); assay: Antiviral activity against herpes simplex virus 1; assay type: cell-based; details: DNA virus
[5] = test system: ISRE-luciferase construct; assay: Stimulation of the ISRE-luciferase construct; assay type: cell-based; details: selection screen
West-Nile virus (WNV) = assay: Inhibition of West-Nile virus (WNV) in HEK-293T cells, glycoprotein immunostaining; details: M.O.I.=1, compounds at 5 μg/ml, FIG. 1
HEK-293T cells [6] = assay: Cellular toxicity in HEK-293T cells (intracellular ATP, CellTiter-Glo); details: for cellular toxicity (intracellular ATP, CellTiter-Glo): HEK-293T cells, FIG. 12C
[7] = test system: dengue virus (serotype 4); assay: Inhibition of dengue virus replication in HEK-293T cells, glycoprotein immunostaining; assay type: cell-based; details: 0.1 M.O.I., 5, 10, 20 μg/ml, 72 h, FIG. 2
Text: Culture medium was removed, and cells were fixed in 90% acetone. Finally, infected cells were stained for dengue virus glycoprotein expression using a 1/1000 dilution of a specific antibody (clone 1H10-6; Millipore) in PBS+5% goat serum.

[8] = test system: herpes simplex virus 2 (HSV2); assay: Antiviral activity against herpes simplex virus 2; assay type: cell-based; details: DNA virus
RNA viruses = assay: Antiviral activity against nine RNA viruses (summary); details: 2.5 to 20 μg/ml
[9] = test system: human coronavirus 229E (229E); assay: Inhibition of human coronavirus 229E in MRC5 cells, spike glycoprotein immunostaining; details: M.O.I.=0.01, compounds at 20 μg/ml, FIG. 1
RSV B1 = assay: Inhibition of human respiratory syncytial virus in MRC5 cells, flow cytometry (RSV B1); assay type: cell-based; details: M.O.I of 1, 20, 10 μg/ml, 48 h, FIG. 4
Method: as §1

[10] = Example 34, HEK-293T cells, 48 hours, FIG. 8
[11] = Example 36, HEK-293T cells, 24 hours, FIG. 10

Compound: COc1ccc(Cl)cc1-c1coc2c1C(=O)CCC2
- melting point: 136 to 137 °C

Compound: O=C1CCCc2occ(-c3cccc([N+](=O)[O-])c3)c21
- melting point: 94 to 95 °C

Compound: C=Cc1cccc(-c2coc3c2C(=O)CCC3)c1 [GAC50, 3-(3-ethenylphenyl)-6,7-dihydro-5H-benzofuran-4-one]
- in vitro replication of the measles virus (MV) (luciferase activity) (measles virus (MV); [10]): blocked
- in vitro replication of measles virus (MV) (luciferase activity) (measles virus (MV); 24 hours): blocked
- half-life at 2.5 μM [1]: 11.3 min
- microsomal CLint at 2.5 μM ([1]; read-out: Intrinsic Clearance): 49.1 µL/min/mg
- melting point: 88 to 89 °C

Compound: O=C1CCCc2occ(-c3ccccc3Cl)c21
- melting point: 147 to 148 °C

Compound: 3-(1H-5-methylindol-3-yl)-2-nitro-2,3-dihydrofuro[3,2-c]chromen-4-one [DD778]
- in vitro replication of the measles virus (MV) (luciferase activity) (measles virus (MV); [11]): blocked

Compound: 3-(1H-5-chloroindol-3-yl)-2-nitro-2,3-dihydrofuro[3,2-c]chromen-4-one [DD771]
- in vitro replication of the measles virus (MV) (luciferase activity) (measles virus (MV); [11]): blocked
- in vitro replication of measles virus (MV) (luciferase activity) (measles virus (MV); 24 hours): blocked
- cellular toxicity (intracellular ATP, CellTiter-Glo) (HEK-293T cells [2]): acceptable cytotoxicity
- Half life [1]: No significative metabolism
- Intrinsic Clearance [1]: No significative metabolism

Compound: O=C1CCCc2occ(-c3cccc(F)c3)c21
- melting point: 65 to 66 °C

Compound: COc1ccc(Cl)cc1C1C2=C(CCCC2=O)OC1[N+](=O)[O-] (centres unmarked)
- melting point: 171 to 172 °C

Compound: O=C1CCCc2occ(-c3cccc(I)c3)c21 [GAC25, 3-(3-iodophenyl)-6,7-dihydro-5H-benzofuran-4-one]
- in vitro replication of measles virus expressing luciferase (measles virus (MV)): blocked
- in vitro replication of the measles virus (MV) (luciferase activity) (measles virus (MV); [10]): blocked
- melting point: 135 to 136 °C

Compound: 3-(1H-5-fluoroindol-3-yl)-2-nitro-2,3-dihydrofuro[3,2-c]chromen-4-one [DD776]
- in vitro replication of the measles virus (MV) (luciferase activity) (measles virus (MV); [11]): blocked

Compound: O=C1CCCc2occ(-c3ccc(Cl)cc3)c21
- melting point: 104 to 105 °C

Compound: O=C1CCCC2=C1C(c1ccccc1Cl)C([N+](=O)[O-])O2 (centres unmarked)
- melting point: 162 to 163 °C

Compound: O=C1CCCc2occ(-c3ccc(Cl)c(Cl)c3)c21
- melting point: 122 to 123 °C

Compound: CC1(C)CC(=O)c2c(-c3cccc(Cl)c3)coc2C1
- melting point: 104 to 105 °C

Compound: ON=C1CCCc2occ(-c3cccc(Cl)c3)c21
- melting point: 157 to 158 °C

Compound: COc1cc(-c2coc3c2C(=O)CCC3)cc(OC)c1OC
- melting point: 140 to 141 °C

Compound: O=C1CCCc2occ(-c3cccc(Cl)c3)c21 [Example 129-G03, 3-(3-chlorophenyl)-6,7-dihydro-5H-benzofuran-4-one]
- in vitro replication of human parainfluenza virus type 3 [3]: blocked
- in vitro replication of hRSV serotype A2 (percentage of infected cells) (RSV A2): blocked
- in vitro replication of measles virus (luciferase activity) (measles virus (MV)): blocked
- in vitro replication of measles virus expressing luciferase (measles virus (MV)): blocked
- in vitro replication of the measles virus (MV) (luciferase activity) (measles virus (MV); [10]): blocked
- in vitro replication of the measles virus (MV) (luciferase activity) (measles virus (MV); [11]): blocked
- in vitro replication of measles virus (MV) (luciferase activity) (measles virus (MV); 24 hours): blocked
- in vitro production of coxsackievirus B3 (virus titers by TCID50) (coxsackievirus B3): blocked
- effects against HSV1 [4]: no effects
- ability to stimulate the ISRE-luciferase construct [5]: ability to stimulate the ISRE-luciferase construct
- in vitro replication of WNV (glycoprotein expression by immunostaining) (West-Nile virus (WNV)): blocked
- cellular toxicity (intracellular ATP, CellTiter-Glo) (HEK-293T cells [6]): acceptable cytotoxicity
- cytotoxic effects on HEK-293T cells (HEK-293T cells [6]; selection screen): absence of cytotoxic effects
- in vitro replication of dengue virus (serotype 4) [7]: blocked
- melting point: 87 to 88 °C
- effects against HSV2 [8]: no effects
- cytopathic effects at concentrations blocking RNA virus replication (RNA viruses): no detectable cytopathic effects
- in vitro replication of 229E (spike glycoprotein expression by immunostaining) [9]: blocked
- in vitro replication of hRSV serotype B1 (percentage of infected cells) (RSV B1): blocked

Compound: CC(=O)C1=C(C)OC([N+](=O)[O-])C1c1cccc(Cl)c1 (centres unmarked)
- melting point: 84 to 85 °C

Compound: COc1cccc(-c2coc3c2C(=O)CCC3)c1
- melting point: 79 to 80 °C

Compound: O=C1CCCc2occ(-c3cccc(Br)c3)c21
- melting point: 106 to 107 °C

Compound: O=c1oc2ccccc2c2c1C(c1c[nH]c3ccccc13)C([N+](=O)[O-])O2 (centres unmarked) [Example 123-G05, 3-(1H-Indol-3-yl)-2-nitro-2,3-dihydrofuro[3,2-c]chromen-4-one]
- in vitro replication of human parainfluenza virus type 3 [3]: blocked
- in vitro replication of hRSV serotype A2 (percentage of infected cells) (RSV A2): blocked
- in vitro replication of measles virus (luciferase activity) (measles virus (MV)): blocked
- cytotoxic effects on HEK-293T cells (HEK-293T cells [2]): absence of cytotoxic effects
- in vitro production of coxsackievirus B3 (virus titers by TCID50) (coxsackievirus B3): blocked
- effects against HSV1 [4]: no effects
- ability to stimulate the ISRE-luciferase construct [5]: ability to stimulate the ISRE-luciferase construct
- in vitro replication of WNV (glycoprotein expression by immunostaining) (West-Nile virus (WNV)): blocked
- cellular toxicity (intracellular ATP, CellTiter-Glo) (HEK-293T cells [6]): acceptable cytotoxicity
- in vitro replication of dengue virus (serotype 4) [7]: blocked
- melting point: 248 to 250 °C (dec.)
- effects against HSV2 [8]: no effects
- cytopathic effects at concentrations blocking RNA virus replication (RNA viruses): no detectable cytopathic effects
- in vitro replication of 229E (spike glycoprotein expression by immunostaining) [9]: blocked
- in vitro replication of hRSV serotype B1 (percentage of infected cells) (RSV B1): blocked

Compound: O=C1CCCc2occ(-c3cc(Cl)cc(Cl)c3)c21
- melting point: 105 to 106 °C

Compound: CC1CC(=O)c2c(-c3cccc(Cl)c3)coc2C1 (centres unmarked)
- melting point: 121 to 122 °C
